Data as given in US20230149326A1, “PHARMACEUTICAL COMPOSITION FOR PREVENTING OR TREATING MUSCULAR WEAKNESS-RELATED DISEASES COMPRISING ALVERINE, 4-HYDROXY ALVERINE, DERIVATIVE THEREOF, OR PHARMACEUTICALLY ACCEPTABLE SALT THEREOF” (AVENTI INC., priority 2020, published 2023).

Legend:
[1] = tested on: C2C12 cells; assay: Promotion of differentiation of myoblasts (MyHC fluorescent staining); format: cell-based, mouse
Procedure: C2C12 (American Type Culture Collection, CRL-1772™) cells are a myoblast cell line obtained from C3H mouse and is used in myoblast differentiation research. The C2C12 cells were cultured using growth media, and then cultured using differentiation media for differentiation induction. Here, DMEM supplemented with 10% fetal bovine serum was used as growth media (GM), and DMEM supplemented with 5% horse serum (HS) was used as differentiation media (DM). In order to confirm the effect of alverine citrate on promoting the differentiation of myoblasts, C2C12 cells were dispensed in the GM of Example 1.1 and cultured for 24 hours, and then the C2C12 cells were treated with DMSO, insulin, or alverine citrate, and induced for differentiation over 3 days. […] Here, the DMSO, insulin and alverine citrate used in the experiment were all purchased from Sigma-Aldrich. The group treated with insulin was used as the positive control group. In particular, C2C12 cells were dispensed in a 6-well plate treated with the GM of Example 1.1 at a concentration of 5×10^5 cells per plate and after 24 hours, were replaced with DMEM media supplemented with 5% HS and induced for differentiation. Thereafter, the cells were treated with DMSO, insulin (1.72 μM) or alverine citrate (0.01 μM, 0.1 μM, 1 μM or 10 μM). After 3 days, after removing the media, the cells were washed with phosphate buffer solution (1× PBS) and treated with paraformaldehyde (4%) and fixed at room temperature for 15 minutes. Then, after washing three times with phosphate buffer solution (1× PBS), PBS containing 0.3% triton X-100 was treated with permeabilization buffer and allowed to react at room temperature for 10 minutes. After washing three times with phosphate buffer solution (1× PBS), PBST (blocking buffer, PBS containing 0.5% Tween 20) containing 2% bovine serum albumin was administered and allowed to react for 30 minutes to suppress nonspecific binding of antibodies. After washing with phosphate buffer (1× PBS) three times, 100 μL of primary antibodies (SC-20641, Santa Cruz Biotechnology) to MYH3 diluted to 1:500 were added and allowed to react at room temperature for 1 hour. Thereafter, after washing with phosphate buffer (1× PBS) three times, 100 μL of secondary antibodies (Goat anti-Rabbit IgG-HRP) diluted to 1:5,000 were added and allowed to react at room temperature for 1 hour. After 1 hour, for nuclear staining, after washing with phosphate buffer (1× PBS) three times, the blocking buffer was treated with diluted DAPI dye and allowed to react at room temperature for 10 minutes. Thereafter, after washing with phosphate buffer (1× PBS) three times, the washed cover glass was measured for absorbance at a wavelength of 450 nm and a fluorescent image was taken using a fluorescence microscope. The anti-MyHC antibody stained area was analyzed using imageJ (Java-based image processing program). To confirm the effect of 4-hydroxy alverine on promoting myoblast differentiation, following the same method as Example 1, DMSO, insulin (1.72 μM), alverine citrate (0.01 μM, 0.1 μM, 1 μM or 10 μM), 4-hydroxy alverine (0.01 μM, 0.1 μM, 1 μM or 10 μM) were each administered, and differentiation to myotubes and changes in myotube thickness and diameter were observed.

[2] = tested on: C2C12 cells; assay: Myotube atrophy induced by C26 cancer cell conditioned medium (cachexia model); format: cell-based, mouse; details: 1 μM; differentiation media with 33% CM, 3 days
Procedure: In order to confirm a cachexia treatment effect of alverine citrate and 4-hydroxy alverine, an experiment mimicking a tumor-growth environment by treatment of a cancer cell conditioned medium (CM) was conducted as an ex vivo approach. First, cancer cell CM was prepared using a C26 cancer cell line. Here, as cancel cell growth media (GM), RPMI1640 media supplemented with 10% fetal bovine serum was used. The C26 cancer cell line was cultured using a 100 mm cell culture plate and the cancer cell GM. Here, the media were removed when cell confluency reached 90%. Then, after washing with phosphate buffer (1× buffer), the prepared differentiation media were treated following the same process as in Example 1. After 24 hours, a C26 cancer cell line CM was obtained and filtered using bottle top filters (Thermo, PES, 1 L) before use.
C2C12 cells were dispensed in a 6-well plate treated with the GM of Example 1.1 at a concentration of 5×10^5 cells per plate and after 24 hours, were replaced with DMEM media supplemented with 5% HS and induced for differentiation. […] Here, by treating the experimental groups with 1 μM alverine citrate (AC) and 4-hydroxy alverine (4HA), the effect of suppressing myotube atrophy was evaluated. […] Following the same method as in Example 1.2, by florescent staining using antibodies against MyHC, the expression amount of MyHC was measured.

[3] = tested on: sarcopenia-induced mice; assay: Running ability test, sarcopenia-induced mouse; format: in vivo; details: hindlimb-immobilized mice; oral 150 mg/kg/day (AC-H); compared with normal mouse
Procedure: Running ability was measured using a treadmill designed specific for this experiment. First, aversive stimuli were provided by letting electric stimuli flow at the starting point. Before the measurement, the mice were acclimatized at 8 m/min for 10 minutes. The running time was recorded by allowing mice in each group to run in separate lanes until exhaustion. Exhaustion was defined such that when the mouse stays outside the lanes for 10 seconds or more without running, the mouse was determined to be exhausted and the time was recorded. It was not possible to repeat this experiment on the same mouse. The mouse was placed on the treadmill and the test was started at 8 rpm, and the speed was accelerated by 2 rpm every 10 minutes to a maximum speed of 20 rpm. The slope of the lane started from a zero-degree incline and then was elevated to a five-degree incline after 30 min from the start. In order to confirm a muscle strength enhancement effect of alverine citrate, sarcopenia-induced mice were administered with alverine citrate and tested for running ability. After the treadmill running test, muscle weight was measured. In particular, the hindlimb of 10 week-old C57BL/6 male mice was immobilized using a surgical stapler (Autosuture Royal 35W stapler). […] After that, running ability was measured. […] Running ability was measured by the same method as in Example 2.2.

[4] = tested on: C2C12 cells; assay: Effect of alverine derivatives on promoting myoblast differentiation; format: cell-based, mouse; details: 1 μM, 4 days; compared with DMSO alone
Procedure: C2C12 (American Type Culture Collection, CRL-1772™) cells are a myoblast cell line obtained from C3H mouse and is used in myoblast differentiation research. The C2C12 cells were cultured using growth media, and then cultured using differentiation media for differentiation induction. Here, DMEM supplemented with 10% fetal bovine serum was used as growth media (GM), and DMEM supplemented with 5% horse serum (HS) was used as differentiation media (DM).
In order to confirm the effect of an alverine derivative on promoting the differentiation of myoblasts, C2C12 cells were dispensed in the GM of Example 1.1 and cultured for 24 hours. Then, the C2C12 cells were treated with DMSO (Sigma-Aldrich), insulin, alverine (Sigma-Aldrich), or 27 types of alverine derivatives, each at a concentration of 1 μM and were induced for differentiation over 4 days. […]
After washing three times with phosphate buffer (1× PBS), PBST (blocking buffer, PBS containing 0.5% Tween 20) containing 2% bovine serum albumin was administered and allowed to react for 30 minutes to suppress nonspecific binding of antibodies. […] Thereafter, after washing with phosphate buffer (1× PBS) three times, the washed cover glass was measured for absorbance at a wavelength of 450 nm and a fluorescent image was taken using a fluorescence microscope.

## CCN(CCCc1ccccc1)CCCc1ccc(O)cc1 [4-hydroxy alverine, 4-[3-[ethyl(3-phenylpropyl)amino]propyl]phenol]
[1]; compared with DMSO or insulin (1.72 μM), 0.01-10 μM
  differentiation of myoblasts to myotubes: more differentiated to myotubes
[1]; compared with alverine at the same concentration
  differentiation promoting effect: superior differentiation promoting effect than alverine
[2]
  myotube atrophy: myotube atrophy was suppressed

## CCN(CCCc1ccccc1)CCCc1ccccc1 [Alverine, N-ethyl-3-phenyl-N-(3-phenylpropyl)propan-1-amine]
[3]
  running time: increased compared to the normal mouse
[4]
  differentiation of myoblasts to myotubes: promoted the differentiation to myotubes

## insulin: positive control group, purchased from Sigma-Aldrich
[1]; compared with DMSO alone, 3 days, insulin 1.72 μM, alverine citrate 0.01-10 μM
  differentiation of myoblasts to myotubes: more differentiated to myotubes
